One assay addresses T1, Adenosine A-1 receptor (Rattus norvegicus, UniProt P25099).
T1 construct: the membranes are isolated from whole animal brains; from tissue; host or cells: whole brain membranes of male Sprague-Dawley rats
T1 sequence (P25099 1-326): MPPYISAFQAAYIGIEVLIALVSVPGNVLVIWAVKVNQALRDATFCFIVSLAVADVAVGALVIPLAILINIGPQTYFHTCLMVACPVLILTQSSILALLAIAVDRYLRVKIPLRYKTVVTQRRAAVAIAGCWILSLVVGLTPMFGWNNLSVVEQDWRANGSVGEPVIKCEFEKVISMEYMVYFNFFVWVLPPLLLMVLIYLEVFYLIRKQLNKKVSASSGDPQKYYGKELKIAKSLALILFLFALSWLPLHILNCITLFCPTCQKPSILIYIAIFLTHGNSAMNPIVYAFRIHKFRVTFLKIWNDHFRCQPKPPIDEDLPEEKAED
The assay is described as follows: Test for affinity for brain adenosine A-1 receptor binding sites ([3H]cyclohexyladenosine competition). Conditions: rat brain membranes, [3H]cyclohexyladenosine 0.8 nM. From the text:
The test described below is used to determine the potency of test compounds to compete with the ligand […] for he Adenosine A-1 receptor prepared from rat brain membranes. Male Sprague-Dawley rats are sacrificed by decapitation and the membranes are isolated from whole animal brains. (See R. Goodman, M. Cooper. M. Gavish, and S. Synder, Guanine Nucleotide and Cation Regulation of the Binding of [3H]Diethylphenylxanthine to Adenosine A-1 Receptors in Brain Membrane, Molecular Pharmacology, 21, 329-335 (1982).
Membranes are homogenized (using polytron setting 7 for 10 seconds) in 25 volumes of ice-cold 50 mM Tris-HCl buffer, pH 7.7. […]
The incubation tubes, in triplicate, receive 100 µl of [3H]cyclohexyladenosine, 0.8 nM in the assay, 200 µl of test compounds at various concentrations over the range of 10^-10 M to 10^-6 M diluted with […] Tris-HCl buffer (pH 7.7), 0.2 ml of membrane suspension (8 mg wet weight) and in a final volume of 2 ml with Tris buffer. […] The filters are counted by liquid scintillation spectrometry in 8 ml of Omniflour containing 5% Protosol.
Specific binding of [3H]cyclohexyladenosine is measured as the excess over blanks taken in the presence of 10^-5 M 2-chloroadenosine. Total membrane-bound radioactivity is about 5% of that added to the test tubes. […] Protein content of the membrane suspension is determined by the method of Lowry, et al., Ibid, 265. […]

The target in the next assay is T2, adenosine A-2 receptors (Rattus norvegicus, UniProt P30543).
T2 construct: from tissue; host or cells: striatal membranes of young male C-D rats (Charles River)
The assay is described as follows: Test for affinity for brain adenosine A-2 receptors ([3H]NECA competition, striatal membranes). The settings on record: for Ki: rat brain striatum membranes, [3H]NECA, read-out: A-2 Receptor Ki; for A-1 Ki/A-2 Ki: ratio of A-1 Ki to A-2 Ki (selectivity). Type of assay: binding. From the text: The test described below was used to determine the potency of test compounds to compete with the ligand [3H]-5'-N-ethyl-carboxamidoadenosine (NECA) for the adenosine A-2 receptors prepared from animal brain membranes. (See also R.R. Bruns, G.H. Lu, and T.A. […] Pharmacol., 29, 331-346 (1986).) Young male rats (C-D strain), obtained from Charles River, are killed by decapitation and the brains are removed. Membranes for ligand binding are isolated from rat brain striatum. The tissue is homogenized in 20 vol ice-cold 50 mM Tris-HCl buffer (pH 7.7) using a polytron (setting for 6 to 20 seconds). The homogenate is centrifuged at 50,000 x g for 10 minutes at 4°C. The pellet is again homogenized in a polytron in 20 vol of buffer, and centrifuged as before. The pellet is finally resuspended in 40 vol of 50 mM Tris-HCl (pH 7.7) per gram of original wet weight of tissue. […] Incubations are carried out at 25°C for 60 minutes. Each tube is filtered through GF/B glass fiber filters using a vacuum. The filters are rinsed two times with 5 ml of the ice-cold buffer. The membranes on the filters are transferred to scintillation vials to which 8 ml of Omnifluor with 5% Protosol is added. The filters are counted by liquid scintillation spectrometry. Specific binding of [3H]NECA is measured as the excess over blanks run in the presence of 100 µM 2-chloroadenosine. Total membrane-bound radioactivity is about 2.5% of that added to the test tubes. […] Specific binding to membranes is about 50% of the total bound. Protein content of the membrane suspension is determined by the method of O.H. Lowry, N.J. Rosebrough, A.L. Farr and R.J. Randall, Protein Measurements With Folin Phenol Reagent, J. Biol. Chem., 193, 265-275 (1951).

The target of another assay is A-2 receptor. The settings on record: rat brain slice assay; cited from earlier work.

T2 sequence (P30543 whole entry): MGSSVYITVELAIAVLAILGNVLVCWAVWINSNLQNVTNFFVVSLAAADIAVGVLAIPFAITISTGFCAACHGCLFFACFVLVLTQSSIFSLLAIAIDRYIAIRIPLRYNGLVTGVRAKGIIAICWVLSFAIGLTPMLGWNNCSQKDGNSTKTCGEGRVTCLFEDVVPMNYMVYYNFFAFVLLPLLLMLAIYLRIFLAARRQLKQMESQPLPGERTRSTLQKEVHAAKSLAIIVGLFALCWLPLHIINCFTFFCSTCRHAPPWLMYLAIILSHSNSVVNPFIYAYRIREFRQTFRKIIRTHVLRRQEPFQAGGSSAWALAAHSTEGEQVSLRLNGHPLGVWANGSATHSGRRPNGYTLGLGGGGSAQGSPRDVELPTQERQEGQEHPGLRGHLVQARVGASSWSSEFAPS

As usually defined, the Ki is a measure of affinity in units of concentration, obtained from inhibition or displacement. Regarding `C[C@H](Cc1ccccc1)Nc1nc(N)c2ncn([C@@H]3O[C@H](CO)[C@@H](O)[C@H]3O)c2n1` [Compound 1, (R)-2-[(phenylisopropyl)amino]adenosine], the inhibition constant Ki on Adenosine A-1 receptor is 8.4 µM; at adenosine A-2 receptors, 3.5 nM. Also, on adenosine A-2 receptors, the “A-1 Ki/A-2 Ki” value is reported as 2400.
For `C[C@@H](Cc1ccccc1)Nc1nc(N)c2ncn([C@@H]3O[C@H](CO)[C@@H](O)[C@H]3O)c2n1` [Compound 2, (S)-2-[(phenylisopropyl)amino]adenosine] the same measures were 5.8 µM, 158 nM and 37.
As for `CCCn1c(=O)c2[nH]c(-c3ccc(OCC(=O)O)cc3)nc2n(CCC)c1=O` [XCC, carboxylic acid congener of 8-phenyl-1,3-dipropylxanthine], the inhibitory constant (Ki) at A-2 receptor was 34 ± 13 nM.
